Earlier results in patent US20240366648A1, “NAD-AUGMENTATION THERAPY FOR PARKINSON'S DISEASE” (Vestlandets Innovasjonsselskap AS (VIS), priority 2021, published 2024).

B1: cinpanemab: a-synuclein antibody drug (antibody, chains of the INN, looked up, V domains shown)
VH: EVQLVESGGGLVEPGGSLRLSCAVSGFDFEKAWMSWVRQAPGQGLQWVARIKSTADGGTTSYAAPVEGRFIISRDDSRNMLYLQMNSLKTEDTAVYYCTSAHWGQGTLVTVSS
VL: SYELTQPPSVSVSPGQTARITCSGEALPMQFAHWYQQRPGKAPVIVVYKDSERPSGVPERFSGSSSGTTATLTITGVQAEDEADYYCQSPDSTNTYEVFGGGTKLTVL

Key:
PD patients = conditions: cited from earlier work
a-synuclein = molecular target: T1, a-synuclein (Homo sapiens, UniProt P37840); conditions: in vivo; cited from earlier work
T1 construct: host or cells: PD patients in a clinical trial (endogenous protein)

| Molecule | decrease of motor decline compared to tocopherol (PD patients) [%] | clinical trial outcome in PD (a-synuclein) |
| --- | --- | --- |
| C#CCN(C)[C@H](C)Cc1ccccc1 [L-Deprenyl, selegiline] | 50 |  |
| B1 |  | did not achieve proof-of-concept and missed its primary and secondary endpoints |
